In general, IC50 refers to the concentration at which inhibition is half-maximal.

This test has as its target Beta-3 Adrenergic Receptor (Homo sapiens (Human), UniProt P13945). The test can be described thus: Homogeneous Time-Resolved Fluorescence (HTRF) cAMP antagonist assay, IC50 determination. Format: cell-based. Particulars: CHO-K1 cells stably expressing recombinant receptor, isoproterenol at EC90. A digest of the protocol:
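In this functional readout, recombinant CHO-K1 cells received compound, then isoproterenol at its EC90. After 1 h at room temperature, cAMP levels were determined by HTRF using an on-plate standard curve, and IC50 values were fitted.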
A general note: In TR-FRET formats the signal depends on donor and acceptor labels being close together.

Sequence of Beta-3 Adrenergic Receptor (P13945 whole entry, species assumed): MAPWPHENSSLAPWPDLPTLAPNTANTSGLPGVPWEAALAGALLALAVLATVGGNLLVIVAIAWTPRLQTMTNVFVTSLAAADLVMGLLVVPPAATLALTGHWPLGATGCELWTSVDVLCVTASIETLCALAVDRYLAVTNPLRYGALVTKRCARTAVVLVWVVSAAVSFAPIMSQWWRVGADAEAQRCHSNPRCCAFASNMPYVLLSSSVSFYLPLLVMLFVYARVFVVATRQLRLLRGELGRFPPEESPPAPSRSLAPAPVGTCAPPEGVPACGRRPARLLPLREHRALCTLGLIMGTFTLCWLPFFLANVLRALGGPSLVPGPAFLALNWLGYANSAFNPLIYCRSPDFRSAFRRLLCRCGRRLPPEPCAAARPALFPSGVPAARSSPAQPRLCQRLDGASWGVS

On to `CNS(=O)(=O)c1cccc(OC[C@@H](O)CNC2COC3(CCN(S(=O)(=O)c4cccnc4N(C)C)CC3)C2)c1` (stereo partly drawn) [Compound 441, 3-((2S)-3-(8-(2-(dimethylamino)pyridin-3-ylsulfonyl)-1-oxa-8-azaspiro[4.5]decan-3-ylamino)-2-hydroxypropoxy)-N-methylbenzenesulfonamide], for which the half-inhibitory concentration (IC50) turned out to be 81.1 nM. As for `CNS(=O)(=O)c1cccc(OC[C@@H](O)CNC2COC3(CCN(S(=O)(=O)c4cccc(-c5ccccc5)c4)CC3)C2)c1` (stereo partly drawn) [Compound 31, 3-((2S)-3-(8-(biphenyl-3-ylsulfonyl)-1-oxa-8-azaspiro[4.5]decan-3-ylamino)-2-hydroxypropoxy)-N-methylbenzenesulfonamide], the figure is 21 nM. The result for `CN(C)S(=O)(=O)c1cccc(OC[C@@H](O)CNC2COC3(CCN(S(=O)(=O)c4ccc5c(c4)NC(=O)CO5)CC3)C2)c1` (stereo partly drawn) [Compound 250, 3-((2S)-2-hydroxy-3-(8-(3-oxo-3,4-dihydro-2H-benzo[b][1,4]oxazin-6-ylsulfonyl)-1-oxa-8-azaspiro[4.5]decan-3-ylamino)propoxy)-N,N-dimethylbenzenesulfonamide] reads 24.2 nM; that for `CNS(=O)(=O)c1cccc(OC[C@@H](O)CN[C@H]2COC3(CCN(S(=O)(=O)c4cnc5[nH]cc(C#N)c5c4)CC3)C2)c1` [Compound 493, 3-((S)-3-((R)-8-(3-cyano-1H-pyrrolo[2,3-b]pyridin-5-ylsulfonyl)-1-oxa-8-azaspiro[4.5]decan-3-ylamino)-2-hydroxypropoxy)-N-methylbenzenesulfonamide], 10.6 nM. The result for `O=C1CCCN1CCNS(=O)(=O)c1cccc(OC[C@@H](O)CNC2COC3(CCN(S(=O)(=O)c4ccc5ccccc5c4)CC3)C2)c1` (stereo partly drawn) [Compound 164, 3-((2S)-2-hydroxy-3-(8-(naphthalen-2-ylsulfonyl)-1-oxa-8-azaspiro[4.5]decan-3-ylamino)propoxy)-N-(2-(2-oxopyrrolidin-1-yl)ethyl)benzenesulfonamide] reads 84.9 nM; that for `CNS(=O)(=O)c1cccc(OC[C@@H](O)CN[C@H]2COC3(CCN(S(=O)(=O)c4ccc5ccccc5c4)CC3)C2)c1` [Compound 30, 3—((S)-2-hydroxy-3-((R)-8-(naphthalen-2-ylsulfonyl)-1-oxa-8-azaspiro[4.5]decan-3-ylamino)propoxy)-N-methylbenzenesulfonamide], 4.41 nM.

As for `CNS(=O)(=O)c1cccc(OC[C@@H](O)CNC2COC3(CCN(S(=O)(=O)c4cccnc4N4CCOCC4)CC3)C2)c1` (stereo partly drawn) [Compound 442, 3-((2S)-2-hydroxy-3-(8-(2-morpholinopyridin-3-ylsulfonyl)-1-oxa-8-azaspiro[4.5]decan-3-ylamino)propoxy)-N-methylbenzenesulfonamide], the IC50 came to 367 nM.

Consider `CNS(=O)(=O)c1cccc(OC[C@@H](O)CNC2COC3(CCN(S(=O)(=O)c4cccc(-c5cncc(C)c5)c4)CC3)C2)c1` (stereo partly drawn) [Compound 110, 3-((2S)-2-hydroxy-3-(8-(3-(5-methylpyridin-3-yl)phenylsulfonyl)-1-oxa-8-azaspiro[4.5]decan-3-ylamino)propoxy)-N-methylbenzenesulfonamide], for which the IC50 was 19 nM.

For `CNS(=O)(=O)c1cccc(OC[C@@H](O)CN[C@@H]2COC3(CCN(S(=O)(=O)c4cccc(-c5ccc(S(N)(=O)=O)cc5)c4)CC3)C2)c1` [Compound 291, 3′-((S)-3-((S)-2-hydroxy-3-(3-(N-methylsulfamoyl)phenoxy)propylamino)-1-oxa-8-azaspiro[4.5]decan-8-ylsulfonyl)biphenyl-4-sulfonamide], the IC50 was 8.84 nM. For the molecule `CNS(=O)(=O)c1cccc(OC[C@@H](O)CN[C@H]2COC3(CCN(S(=O)(=O)c4cccc(-c5cccnc5)c4)CC3)C2)c1` [Compound 285, 3-((S)-2-hydroxy-3-((R)-8-(3-(pyridin-3-yl)phenylsulfonyl)-1-oxa-8-azaspiro[4.5]decan-3-ylamino)propoxy)-N-methylbenzenesulfonamide], the IC50 came to 25 nM. As for `CNS(=O)(=O)c1cccc(OC[C@@H](O)CNC2COC3(CCN(S(=O)(=O)c4cccc(-c5ccc(-c6noc(C)n6)cc5)c4)CC3)C2)c1` (stereo partly drawn) [Compound 380, 3-((2S)-2-hydroxy-3-(8-(4′-(5-methyl-1,2,4-oxadiazol-3-yl)biphenyl-3-ylsulfonyl)-1-oxa-8-azaspiro[4.5]decan-3-ylamino)propoxy)-N-methylbenzenesulfonamide], the figure is 102 nM; as for `CN1CCOc2ncc(S(=O)(=O)N3CCC4(CC3)C[C@@H](NC[C@H](O)COc3cccc(S(=O)(=O)NCCO)c3)CO4)cc21` [Compound 417, 3-((S)-2-hydroxy-3-((R)-8-(1-methyl-2,3-dihydro-1H-pyrido[2,3-b][1,4]oxazin-7-ylsulfonyl)-1-oxa-8-azaspiro[4.5]decan-3-ylamino)propoxy)-N-(2-hydroxyethyl)benzenesulfonamide], 112 nM. Turning to `CCOc1ccc(-c2ccc(CN)cc2)cc1S(=O)(=O)N1CCC2(CC1)CC(NC[C@H](O)COc1cccc(S(=O)(=O)NC)c1)CO2` (stereo partly drawn) [Compound 404, 3-((2S)-3-(8-(4′-(aminomethyl)-4-ethoxybiphenyl-3-ylsulfonyl)-1-oxa-8-azaspiro[4.5]decan-3-ylamino)-2-hydroxypropoxy)-N-methylbenzenesulfonamide], the IC50 was 13 nM. As for `CNS(=O)(=O)c1cccc(OC[C@@H](O)CN[C@H]2COC3(CCN(c4ccncn4)CC3)C2)c1` [Compound 589, 3-((S)-2-hydroxy-3-((R)-8-(pyrimidin-4-yl)-1-oxa-8-azaspiro[4.5]decan-3-ylamino)propoxy)-N-methylbenzenesulfonamide], the figure is 1450 nM.

Consider `CNS(=O)(=O)c1cccc(OC[C@@H](O)CN[C@H]2COC3(CCN(S(=O)(=O)c4cnc5c(c4)COCC5)CC3)C2)c1` [Compound 488, 3-((S)-3-((R)-8-(7,8-dihydro-5H-pyrano[4,3-b]pyridin-3-ylsulfonyl)-1-oxa-8-azaspiro[4.5]decan-3-ylamino)-2-hydroxypropoxy)-N-methylbenzenesulfonamide], for which the IC50 amounted to 38.1 nM. As for `CNS(=O)(=O)c1cccc(OC[C@@H](O)CN[C@H]2COC3(CCN(S(=O)(=O)c4cnc5c(F)cccc5c4O)CC3)C2)c1` [Compound 540, 3-((S)-3-((R)-8-(8-fluoro-4-hydroxyquinolin-3-ylsulfonyl)-1-oxa-8-azaspiro[4.5]decan-3-ylamino)-2-hydroxypropoxy)-N-methylbenzenesulfonamide], the figure is 32.7 nM; as for `CNS(=O)(=O)c1cccc(OC[C@@H](O)CNC2COC3(CCN(S(=O)(=O)c4cc(Br)ccc4Cl)CC3)C2)c1` (stereo partly drawn) [Compound 259, 3-((2S)-3-(8-(5-bromo-2-chlorophenylsulfonyl)-1-oxa-8-azaspiro[4.5]decan-3-ylamino)-2-hydroxypropoxy)-N-methylbenzenesulfonamide], 23.1 nM; as for `CNS(=O)(=O)c1cccc(OC[C@@H](O)CN[C@H]2COC3(CCN(S(=O)(=O)c4cnc5cc(C)ccc5c4O)CC3)C2)c1` [Compound 538, 3-((S)-2-hydroxy-3-((R)-8-(4-hydroxy-7-methylquinolin-3-ylsulfonyl)-1-oxa-8-azaspiro[4.5]decan-3-ylamino)propoxy)-N-methylbenzenesulfonamide], 54.2 nM. The result for `CNS(=O)(=O)c1cccc(OC[C@@H](O)CNC2COC3(CCN(S(=O)(=O)c4cc(Cl)ccc4C)CC3)C2)c1` (stereo partly drawn) [Compound 240, 3-((2S)-3-(8-(5-chloro-2-methylphenylsulfonyl)-1-oxa-8-azaspiro[4.5]decan-3-ylamino)-2-hydroxypropoxy)-N-methylbenzenesulfonamide] reads 28.4 nM. For `CNS(=O)(=O)c1cccc(OC[C@@H](O)CNC2COC3(CCN(S(=O)(=O)c4ccc(C#N)cc4)CC3)C2)c1` (stereo partly drawn) [Compound 44, 3-((2S)-3-(8-(4-cyanophenylsulfonyl)-1-oxa-8-azaspiro[4.5]decan-3-ylamino)-2-hydroxypropoxy)-N-methylbenzenesulfonamide], the half-maximal inhibitory concentration (IC50) was 34.1 nM. Regarding `CNc1nc2c(cc1S(=O)(=O)N1CCC3(CC1)C[C@@H](NC[C@H](O)COc1cccc(S(=O)(=O)NC)c1)CO3)N(C)CCO2` [Compound 452, 3-((S)-2-hydroxy-3-((R)-8-(1-methyl-6-(methylamino)-2,3-dihydro-1H-pyrido[2,3-b][1,4]oxazin-7-ylsulfonyl)-1-oxa-8-azaspiro[4.5]decan-3-ylamino)propoxy)-N-methylbenzenesulfonamide], the IC50 was 25.7 nM. `CNS(=O)(=O)c1cccc(OC[C@@H](O)CNC2COC3(CCN(S(=O)(=O)c4ccc(C(=O)O)cc4)CC3)C2)c1` (stereo partly drawn) [Compound 40, 4-(3-((S)-2-hydroxy-3-(3-(N-methylsulfamoyl)phenoxy)propylamino)-1-oxa-8-azaspiro[4.5]decan-8-ylsulfonyl)benzoic acid]: the IC50 was determined as 577 nM. As for `CNS(=O)(=O)c1cccc(OC[C@@H](O)CNC2COC3(CCN(S(=O)(=O)c4cccc(-c5cn(C)nc5C)c4)CC3)C2)c1` (stereo partly drawn) [Compound 68, 3-((2S)-3-(8-(3-(1,3-dimethyl-1H-pyrazol-4-yl)phenylsulfonyl)-1-oxa-8-azaspiro[4.5]decan-3-ylamino)-2-hydroxypropoxy)-N-methylbenzenesulfonamide], the figure is 36.9 nM; as for `CCc1cnc(N2CCC3(CC2)C[C@@H](NC[C@H](O)COc2cccc(S(=O)(=O)NC)c2)CO3)nc1` [Compound 571, 3-((S)-3-((R)-8-(5-ethylpyrimidin-2-yl)-1-oxa-8-azaspiro[4.5]decan-3-ylamino)-2-hydroxypropoxy)-N-methylbenzenesulfonamide], 237 nM. For the molecule `CNS(=O)(=O)c1cccc(OC[C@@H](O)CNC2COC3(CCN(S(=O)(=O)c4cc(Br)cc5c4OCC5)CC3)C2)c1` (stereo partly drawn) [Compound 260, 3-((2S)-3-(8-(5-bromo-2,3-dihydrobenzofuran-7-ylsulfonyl)-1-oxa-8-azaspiro[4.5]decan-3-ylamino)-2-hydroxypropoxy)-N-methylbenzenesulfonamide], the IC50 stood at 20.3 nM.

Values taken from patent US11987588B2, “Modulators of the beta-3 adrenergic receptor useful for the treatment or prevention of heart failure and disorders related thereto” (Arena Pharmaceuticals, Inc., priority 2017, dated 2024).
